Experimental data: ChEMBL document CHEMBL1909046, “DrugMatrix in vitro pharmacology data”

Legend:
Nitric oxide synthase 1 = Nitric oxide synthase 1 (Rattus norvegicus, UniProt P29476); assay type: tissue-based, Cerebellum; note: in other assays of this panel Not Active means under 50% inhibition at 10 µM
B2 bradykinin receptor = molecular target: T1, B2 bradykinin receptor (Homo sapiens, UniProt P30411); assay type: cell membranes, Membrane; settings: chem-1; note: in other assays of this panel Not Active means under 50% inhibition at 10 µM
T1 sequence (P30411 whole entry): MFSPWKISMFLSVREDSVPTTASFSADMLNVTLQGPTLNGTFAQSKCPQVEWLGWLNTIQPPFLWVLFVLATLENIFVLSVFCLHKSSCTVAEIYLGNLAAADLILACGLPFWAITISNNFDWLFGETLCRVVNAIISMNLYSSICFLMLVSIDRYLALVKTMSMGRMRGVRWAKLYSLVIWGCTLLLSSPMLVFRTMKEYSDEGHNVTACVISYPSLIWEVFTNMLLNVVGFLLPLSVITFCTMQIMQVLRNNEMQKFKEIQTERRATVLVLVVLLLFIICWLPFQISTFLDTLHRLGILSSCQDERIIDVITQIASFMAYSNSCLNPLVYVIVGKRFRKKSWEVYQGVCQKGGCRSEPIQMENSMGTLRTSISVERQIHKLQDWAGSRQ

Androgen receptor = molecular target: T2, Androgen receptor (Rattus norvegicus, UniProt P15207); note: in other assays of this panel Not Active means under 50% inhibition at 10 µM
T2 sequence (P15207 whole entry): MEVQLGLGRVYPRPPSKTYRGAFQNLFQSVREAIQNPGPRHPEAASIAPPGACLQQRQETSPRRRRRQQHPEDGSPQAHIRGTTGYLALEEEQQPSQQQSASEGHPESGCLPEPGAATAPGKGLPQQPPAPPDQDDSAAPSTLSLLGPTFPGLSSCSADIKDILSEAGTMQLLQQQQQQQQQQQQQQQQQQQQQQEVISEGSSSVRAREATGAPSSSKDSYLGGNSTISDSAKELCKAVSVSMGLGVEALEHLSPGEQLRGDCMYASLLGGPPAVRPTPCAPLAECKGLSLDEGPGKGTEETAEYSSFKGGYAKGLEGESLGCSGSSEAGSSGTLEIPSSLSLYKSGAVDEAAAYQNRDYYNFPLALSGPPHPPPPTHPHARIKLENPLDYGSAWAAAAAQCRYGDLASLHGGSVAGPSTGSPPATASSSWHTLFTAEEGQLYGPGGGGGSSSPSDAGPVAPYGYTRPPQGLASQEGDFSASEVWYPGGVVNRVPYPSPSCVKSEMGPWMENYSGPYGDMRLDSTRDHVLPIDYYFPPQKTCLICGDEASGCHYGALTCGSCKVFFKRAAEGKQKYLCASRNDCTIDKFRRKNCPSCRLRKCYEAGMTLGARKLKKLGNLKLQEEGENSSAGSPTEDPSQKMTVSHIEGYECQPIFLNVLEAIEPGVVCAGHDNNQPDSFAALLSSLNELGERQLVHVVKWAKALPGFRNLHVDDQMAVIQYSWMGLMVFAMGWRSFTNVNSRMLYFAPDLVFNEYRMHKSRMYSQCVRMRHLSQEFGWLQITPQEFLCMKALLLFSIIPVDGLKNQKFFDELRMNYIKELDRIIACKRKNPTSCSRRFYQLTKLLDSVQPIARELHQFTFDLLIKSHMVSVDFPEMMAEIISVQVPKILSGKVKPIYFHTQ

[1] = DRUGMATRIX: GABAA, Chloride Channel, TBOB radioligand binding (ligand: [3H] TBOB); assay type: cell membranes, Rattus norvegicus, Wistar, Cerebral cortex, Membrane; settings: Not Active = under 50% inhibition at 10 µM
Progesterone receptor = molecular target: T3, Progesterone receptor (Bos taurus, UniProt Q690N0); test: DRUGMATRIX: Progesterone radioligand binding (ligand: [3H] R-5020); assay type: tissue-based, Uterus; settings: Not Active = under 50% inhibition at 10 µM
T3 sequence (Q690N0 whole entry): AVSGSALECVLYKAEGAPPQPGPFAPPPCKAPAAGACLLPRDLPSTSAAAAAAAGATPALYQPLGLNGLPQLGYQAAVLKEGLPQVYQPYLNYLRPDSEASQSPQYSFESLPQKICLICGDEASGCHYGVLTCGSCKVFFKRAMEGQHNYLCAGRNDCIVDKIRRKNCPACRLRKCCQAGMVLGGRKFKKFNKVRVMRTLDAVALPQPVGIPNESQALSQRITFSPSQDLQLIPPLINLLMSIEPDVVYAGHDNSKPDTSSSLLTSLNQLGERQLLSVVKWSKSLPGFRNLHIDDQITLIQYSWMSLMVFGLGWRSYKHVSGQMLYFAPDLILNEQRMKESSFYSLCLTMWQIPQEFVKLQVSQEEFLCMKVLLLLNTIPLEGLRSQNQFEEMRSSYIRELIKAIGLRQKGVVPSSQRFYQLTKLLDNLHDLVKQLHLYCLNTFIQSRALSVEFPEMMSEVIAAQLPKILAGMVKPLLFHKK

Cytochrome P450 2A6 = molecular target: T4, Cytochrome P450 2A6 (Homo sapiens, UniProt P11509); settings: bti-tn-5b1-4; note: in other assays of this panel Not Active means under 50% inhibition at 10 µM
T4 sequence (P11509 whole entry): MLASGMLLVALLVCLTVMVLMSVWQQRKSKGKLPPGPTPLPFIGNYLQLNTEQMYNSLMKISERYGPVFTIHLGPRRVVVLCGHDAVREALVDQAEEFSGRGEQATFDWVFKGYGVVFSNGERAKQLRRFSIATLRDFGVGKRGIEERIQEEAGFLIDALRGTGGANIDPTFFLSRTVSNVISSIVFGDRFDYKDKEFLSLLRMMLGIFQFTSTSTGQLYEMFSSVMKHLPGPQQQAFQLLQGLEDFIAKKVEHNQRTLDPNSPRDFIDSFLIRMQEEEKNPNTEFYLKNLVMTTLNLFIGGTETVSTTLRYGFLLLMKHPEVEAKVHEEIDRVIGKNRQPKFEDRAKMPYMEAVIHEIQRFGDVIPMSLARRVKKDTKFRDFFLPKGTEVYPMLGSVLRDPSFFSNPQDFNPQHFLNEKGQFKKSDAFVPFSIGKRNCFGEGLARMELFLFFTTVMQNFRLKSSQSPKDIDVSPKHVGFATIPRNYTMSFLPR

[2] = molecular target: T5, Cholecystokinin receptor type A (Homo sapiens, UniProt P32238); assay type: cell membranes, Membrane; settings: 1321-n1; note: in other assays of this panel Not Active means under 50% inhibition at 10 µM
T5 sequence (P32238 whole entry): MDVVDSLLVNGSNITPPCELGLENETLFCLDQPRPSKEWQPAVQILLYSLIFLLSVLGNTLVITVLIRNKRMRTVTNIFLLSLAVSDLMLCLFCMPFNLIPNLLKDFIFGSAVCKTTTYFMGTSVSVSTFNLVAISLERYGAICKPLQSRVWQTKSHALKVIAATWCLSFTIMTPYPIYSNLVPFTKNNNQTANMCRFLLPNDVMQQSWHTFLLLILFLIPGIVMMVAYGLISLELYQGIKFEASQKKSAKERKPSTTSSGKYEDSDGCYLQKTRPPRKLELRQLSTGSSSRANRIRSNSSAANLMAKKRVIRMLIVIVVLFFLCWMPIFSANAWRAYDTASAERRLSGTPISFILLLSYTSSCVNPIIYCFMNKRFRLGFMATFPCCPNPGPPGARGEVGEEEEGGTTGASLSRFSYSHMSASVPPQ

[3] = molecular target: Mitogen-activated protein kinase 3 (Homo sapiens, UniProt P27361); test: DRUGMATRIX: Protein Serine/Threonine Kinase, ERK1 enzyme inhibition (substrate: Myelin Basic Protein); set-up: species or system Escherichia coli; settings: Not Active = under 50% inhibition at 10 µM
Mitogen-activated protein kinase 3, sequence (P27361 whole entry): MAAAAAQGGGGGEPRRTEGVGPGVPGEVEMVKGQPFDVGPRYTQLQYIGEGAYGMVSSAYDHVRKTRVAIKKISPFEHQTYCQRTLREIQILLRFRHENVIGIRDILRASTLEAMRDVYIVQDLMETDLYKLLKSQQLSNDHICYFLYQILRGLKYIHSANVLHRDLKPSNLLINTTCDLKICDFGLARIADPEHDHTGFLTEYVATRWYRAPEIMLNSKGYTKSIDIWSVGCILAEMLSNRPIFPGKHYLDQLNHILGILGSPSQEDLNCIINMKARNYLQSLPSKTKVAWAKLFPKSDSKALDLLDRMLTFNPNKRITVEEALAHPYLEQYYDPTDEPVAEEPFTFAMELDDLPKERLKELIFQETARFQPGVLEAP

Nitric oxide synthase 1, sequence (P29476 whole entry): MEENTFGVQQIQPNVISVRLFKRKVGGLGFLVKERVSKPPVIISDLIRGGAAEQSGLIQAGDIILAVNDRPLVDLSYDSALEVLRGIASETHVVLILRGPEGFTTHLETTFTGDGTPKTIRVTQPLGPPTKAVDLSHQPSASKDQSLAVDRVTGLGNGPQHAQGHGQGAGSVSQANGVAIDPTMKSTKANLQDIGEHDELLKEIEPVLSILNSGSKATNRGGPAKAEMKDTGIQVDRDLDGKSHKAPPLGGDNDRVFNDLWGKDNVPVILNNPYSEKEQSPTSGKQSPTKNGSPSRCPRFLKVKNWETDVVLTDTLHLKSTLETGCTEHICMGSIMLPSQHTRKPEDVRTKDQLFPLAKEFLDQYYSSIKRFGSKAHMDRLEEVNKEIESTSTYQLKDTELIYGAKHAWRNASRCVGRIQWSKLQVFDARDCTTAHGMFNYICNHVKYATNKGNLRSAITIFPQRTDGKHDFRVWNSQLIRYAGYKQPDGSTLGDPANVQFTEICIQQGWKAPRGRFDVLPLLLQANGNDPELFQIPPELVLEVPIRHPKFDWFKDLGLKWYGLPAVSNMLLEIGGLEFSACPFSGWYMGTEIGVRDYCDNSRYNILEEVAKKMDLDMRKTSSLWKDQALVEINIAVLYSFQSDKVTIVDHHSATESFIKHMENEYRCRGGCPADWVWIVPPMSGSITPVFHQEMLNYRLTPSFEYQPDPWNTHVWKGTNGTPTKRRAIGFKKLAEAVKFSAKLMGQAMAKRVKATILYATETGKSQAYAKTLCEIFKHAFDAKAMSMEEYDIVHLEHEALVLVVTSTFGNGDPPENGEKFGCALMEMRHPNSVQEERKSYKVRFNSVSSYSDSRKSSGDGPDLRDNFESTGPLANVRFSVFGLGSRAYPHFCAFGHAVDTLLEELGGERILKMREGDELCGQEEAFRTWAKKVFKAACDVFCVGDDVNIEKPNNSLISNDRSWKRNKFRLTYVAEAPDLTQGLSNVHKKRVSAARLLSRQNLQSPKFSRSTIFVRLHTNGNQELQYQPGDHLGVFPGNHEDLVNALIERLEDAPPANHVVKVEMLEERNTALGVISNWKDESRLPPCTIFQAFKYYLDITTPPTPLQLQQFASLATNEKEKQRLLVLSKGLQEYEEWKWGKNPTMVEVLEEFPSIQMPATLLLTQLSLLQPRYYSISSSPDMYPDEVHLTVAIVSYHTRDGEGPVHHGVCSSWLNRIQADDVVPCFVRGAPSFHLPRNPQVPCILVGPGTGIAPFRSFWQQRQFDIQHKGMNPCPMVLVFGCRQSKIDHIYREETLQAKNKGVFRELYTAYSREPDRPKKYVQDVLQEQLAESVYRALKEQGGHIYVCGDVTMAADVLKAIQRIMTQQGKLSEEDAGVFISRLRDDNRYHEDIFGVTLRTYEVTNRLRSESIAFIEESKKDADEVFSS

COc1ccc2cc(CC(=O)O)ccc2c1
Not Active: IC50 (Nitric oxide synthase 1) | IC50 (B2 bradykinin receptor) | IC50 (Androgen receptor) | IC50 [1] | Ki [1] | IC50 (Progesterone receptor) | IC50 (Cytochrome P450 2A6) | Ki (Cytochrome P450 2A6) | IC50 [2] | IC50 [3]

CC(C)NC[C@H](O)COc1cccc2[nH]ccc12
Not Active: IC50 (Nitric oxide synthase 1) | IC50 (B2 bradykinin receptor) | IC50 (Androgen receptor) | IC50 [1] | Ki [1] | IC50 [2] | IC50 [3]

C=C1C(=O)O[C@@H]2C3O[C@]3(C)CC/C=C(\C)CC[C@@H]12 (stereo partly specified)
Not Active: IC50 (Nitric oxide synthase 1) | IC50 (B2 bradykinin receptor) | IC50 (Androgen receptor) | IC50 [1] | Ki [1] | IC50 (Progesterone receptor) | IC50 (Cytochrome P450 2A6) | Ki (Cytochrome P450 2A6) | IC50 [2] | IC50 [3]

COc1ccc2c(c1)c(CC(=O)OCC(=O)O)c(C)n2C(=O)c1ccc(Cl)cc1 [ACEMETACIN]
Not Active: IC50 (Nitric oxide synthase 1) | IC50 (B2 bradykinin receptor) | IC50 (Androgen receptor) | IC50 [1] | Ki [1] | IC50 (Progesterone receptor) | IC50 (Cytochrome P450 2A6) | Ki (Cytochrome P450 2A6) | IC50 [2] | IC50 [3]

O=c1cc(-c2ccccc2)oc2c1ccc1ccccc12 [ALPHA-NAPHTHOFLAVONE]
Not Active: IC50 (Nitric oxide synthase 1) | IC50 (B2 bradykinin receptor) | IC50 (Androgen receptor) | IC50 [1] | Ki [1] | IC50 (Progesterone receptor) | IC50 (Cytochrome P450 2A6) | Ki (Cytochrome P450 2A6) | IC50 [2] | IC50 [3]

O=C1NC(=O)C(c2ccccc2)(c2ccccc2)N1 [PHENYTOIN]
Not Active: IC50 (Nitric oxide synthase 1) | IC50 (B2 bradykinin receptor) | IC50 [1] | Ki [1] | IC50 (Progesterone receptor) | IC50 (Cytochrome P450 2A6) | Ki (Cytochrome P450 2A6) | IC50 [2] | IC50 [3]

CNC(=O)Oc1ccc2c(c1)[C@]1(C)CCN(C)[C@@H]1N2C [PHYSOSTIGMINE]
Not Active: IC50 (Nitric oxide synthase 1) | IC50 (B2 bradykinin receptor) | IC50 [1] | Ki [1] | IC50 (Progesterone receptor) | IC50 (Cytochrome P450 2A6) | Ki (Cytochrome P450 2A6) | IC50 [2] | IC50 [3]

CN1C(C(=O)Nc2ccccn2)=C(O)c2ccccc2S1(=O)=O [PIROXICAM]
Not Active: IC50 (Nitric oxide synthase 1) | IC50 (B2 bradykinin receptor) | IC50 [1] | Ki [1] | IC50 (Progesterone receptor) | IC50 (Cytochrome P450 2A6) | Ki (Cytochrome P450 2A6) | IC50 [2] | IC50 [3]

CCC1(c2ccccc2)C(=O)NCNC1=O [PRIMIDONE]
Not Active: IC50 (Nitric oxide synthase 1) | IC50 (B2 bradykinin receptor) | IC50 [1] | Ki [1] | IC50 (Progesterone receptor) | IC50 (Cytochrome P450 2A6) | Ki (Cytochrome P450 2A6) | IC50 [2] | IC50 [3]

CCCc1cc(=O)[nH]c(=S)[nH]1 [PROPYLTHIOURACIL]
Not Active: IC50 (Nitric oxide synthase 1) | IC50 (B2 bradykinin receptor) | IC50 [1] | Ki [1] | IC50 (Progesterone receptor) | IC50 (Cytochrome P450 2A6) | Ki (Cytochrome P450 2A6) | IC50 [2] | IC50 [3]

COc1ccc(CN(CCN(C)C)c2ccccn2)cc1 [PYRILAMINE]
Not Active: IC50 (Nitric oxide synthase 1) | IC50 (B2 bradykinin receptor) | IC50 [1] | Ki [1] | IC50 (Progesterone receptor) | IC50 (Cytochrome P450 2A6) | Ki (Cytochrome P450 2A6) | IC50 [2] | IC50 [3]
